Laboratory results: US8299093B2, “Small molecule inhibitors of retroviral assembly and maturation” (New York Blood Center, Inc., priority 2008, dated 2012)
Like-named read-outs stand apart in the source and are kept apart here.

Assays:
HIV-1 [1] = assay: Inhibition of HIV-1 infectivity (p24 ELISA) in MT-2 cells, laboratory-adapted HIV-1 strains; format: cell-based; settings: for IC50: Human immunodeficiency virus 1, MT2, 96 h, MT-2 cells, p24 ELISA day 4; for Activity against a broad range of HIV-1 laboratory-adapted and primary isolates: including one RT-inhibitor-resistant and one protease-inhibitor-resistant isolate (summary of Table 3)
Procedure: (§1) AZT was used as a positive control in the infectivity assays. In brief, 1×10^4 MT-2 cells (lymphocytes) were infected with HIV-1 at 100 TCID50 (50% tissue culture infective dose, 0.01 MOI [multiplicity of infection]) in 200 μL RPMI 1640 medium containing 10% FBS in the presence or absence of small molecules at graded concentrations overnight. The culture supernatants were then removed and fresh media containing freshly prepared test compounds were added. On the fourth day post-infection, 100 μL of culture supernatants were collected from each well, mixed with equal volume of 5% TRITON X-100® and tested for p24 antigen by ELISA®.

[2] = XTT cytotoxicity assay in MT-2 cells; format: cell-based; settings: human; for CC50 at 4 days: MT-2 cells; for CC50: cell type not given
Procedure: (§2) Briefly, for MT-2 cells, 100 μL of small molecule at graded concentrations was added to an equal volume of cells (5×10^4 cells/ml) in 96-well plates followed by incubation at 37° C. for 4 days, which ran parallel to the neutralization assay in MT-2 (except medium was added instead of virus). In the case of PBMC, 2.5×10^5 cells/mL were used and the cytotoxicity was measured after 7 days. After addition of XTT (PolySciences, Inc.), the soluble intracellular formazan was quantitated calorimetrically at 450 nm 4 hours later with a reference at 620 nm. The CC50 values were calculated.

[3] = XTT cytotoxicity assay in PBMC; format: cell-based; settings: human
Procedure: as §2, with “Cytotoxicity of small molecules in cultures with MT-2 cells and PBMC was measured by the tetrazolium hydroxide XTT (sodium 3′-(1-(phenylamino)-carbonyl)-3,4-tetrazolium-bis(4-methoxy-6-nitro) benzenesulfonic acid hydrate) cytotoxicity assay, as previously described (Jiang et al., 2004). Briefly,” for “Briefly,”

HIV-1 IIIB = assay: Antiviral activity (p24) against HIV-1 IIIB in MT-2; format: cell-based; settings: Human immunodeficiency virus 1, subtype B, MT-2, X4, laboratory strain
Procedure: as §1, with “ELISA®. The IC50 values were calculated by the GraphPad Prism software (GraphPad Software®, Inc.) and the values were classified as IC50<10 μM and IC50>10 μM.” for “ELISA®.”
(§3) The molecules in Tables 3 include the calculated IC50 values and use “A1” to denote IC50<10 μM and “B1” to denote IC50>10 μM and “C1” to denote CC50<50 μM and “D1” to denote […].

HIV-1 MN = assay: Antiviral activity (p24) against HIV-1 MN in MT-2; format: cell-based; settings: Human immunodeficiency virus 1, subtype B, MT-2, X4, laboratory strain
Procedure: as §1, with “ELISA®. The IC50 values were calculated by the GraphPad Prism software (GraphPad Software®, Inc.) and the values were classified as IC50<10 μM and IC50>10 μM.” for “ELISA®.”
as §3

HIV-1 SF2 = assay: Antiviral activity (p24) against HIV-1 SF2 in MT-2; format: cell-based; settings: Human immunodeficiency virus 1; SF2, subtype B, MT-2, R5X4, laboratory strain
Procedure: as §1, with “ELISA®. The IC50 values were calculated by the GraphPad Prism software (GraphPad Software®, Inc.) and the values were classified as IC50<10 μM and IC50>10 μM.” for “ELISA®.”
as §3

HIV-1 RF = assay: Antiviral activity (p24) against HIV-1 RF in MT-2; format: cell-based; settings: Human immunodeficiency virus 1, subtype B, MT-2, X4, laboratory strain
Procedure: as §1, with “ELISA®. The IC50 values were calculated by the GraphPad Prism software (GraphPad Software®, Inc.) and the values were classified as IC50<10 μM and IC50>10 μM.” for “ELISA®.”
as §3

HIV-1 BaL = assay: Antiviral activity (p24) against HIV-1 BaL in PBMC; format: cell-based; settings: Human immunodeficiency virus 1, subtype B, R5, laboratory strain
Procedure: as §1, with “ELISA®. The IC50 values were calculated by the GraphPad Prism software (GraphPad Software®, Inc.) and the values were classified as IC50<10 μM and IC50>10 μM.” for “ELISA®.”
(§4) Peripheral blood mononuclear cells (PBMCs) were isolated from the blood of healthy donors by standard density gradient centrifugation using Histopaque-1077 (Sigma). The cells were cultured at 37° C. for 2 hours. Nonadherent cells were collected and resuspended at 5×10^6 cells/ml RPMI-1640 medium containing 10% FBS, 5 μg/ml PHA, and 100 U/ml IL-2 (Sigma), followed by incubation at 37° C. for 3 days. The PHA-stimulated cells (5×10^4 cells/well) were infected with primary HIV-1 isolates at 500 TCID50 (0.01 MOI) in the absence or presence of small molecule inhibitor at graded concentrations. Culture media were changed every 3 days and replaced with fresh media containing freshly prepared inhibitor. The supernatants were collected 7 days post-infection and tested for p24 antigen by ELISA. The inhibition of p24 production in PBMC was measured over a range of concentrations and the concentration required to inhibit 50% (IC50) of the p24 production was calculated by the GraphPad Prism software.
as §3

HIV-1 AZT-R = assay: Antiviral activity (p24) against RT-resistant isolate AZT-R in MT-2; format: cell-based; settings: Human immunodeficiency virus 1
Procedure: as §1, with “ELISA®. The IC50 values were calculated by the GraphPad Prism software (GraphPad Software®, Inc.) and the values were classified as IC50<10 μM and IC50>10 μM.” for “ELISA®.”
as §3

HIV-1RF/L-323-12-3 = assay: Antiviral activity (p24) against protease resistant isolate HIV-1RF/L-323-12-3 in MT-2; format: cell-based; settings: Human immunodeficiency virus 1
Procedure: as §1, with “ELISA®. The IC50 values were calculated by the GraphPad Prism software (GraphPad Software®, Inc.) and the values were classified as IC50<10 μM and IC50>10 μM.” for “ELISA®.”
as §3

HIV-1 92US657 = assay: Antiviral activity (p24) against primary isolate 92US657 in PBMC; format: cell-based; settings: Human immunodeficiency virus 1, 92US657, subtype B, R5, primary isolate
Procedure: as §4, §3

HIV-1 93IN101 = assay: Antiviral activity (p24) against primary isolate 93IN101 in PBMC; format: cell-based; settings: Human immunodeficiency virus 1, 93IN101, subtype C, R5, primary isolate
Procedure: as §4, §3

HIV-1 93Br020 = assay: Antiviral activity (p24) against primary isolate 93Br020 in PBMC; format: cell-based; settings: Human immunodeficiency virus 1, 93Br020, subtype F, R5X4, primary isolate
Procedure: as §4, §3

HIV-1 RU570 = assay: Antiviral activity (p24) against primary isolate RU570 in PBMC; format: cell-based; settings: Human immunodeficiency virus 1, RU570, subtype G, R5, primary isolate
Procedure: as §4, §3

HIV-1 BCF02 = assay: Antiviral activity (p24) against primary isolate BCF02 in PBMC; format: cell-based; settings: Human immunodeficiency virus 1, BCF02, Group (O), R5, primary isolate
Procedure: as §4, §3

[4] = system: Gag-Pol expressing 293 T cells; assay: Cell-based mature particle formation (VLP), electron microscopy of Gag-Pol transfected 293 T cells; parameters: species or system HIV-1
Procedure: In the cell-based system, the impact of NYAD-S6 on virus-like particle (VLP) release and morphology was analyzed by electron microscopy one day post-transfection with plasmid encoding Gag-Pol. Forty thousand 293 T cells were seeded per well in a 6-well plate on the day before transfection. […] The cells were then fixed in 3% glutaraldehyde in 100 mM sodium cacodylate for 1 hour and post-fixed in 1% OsO4 in 100 mM sodium cacodylate for another 1 hour. Specimens were then dehydrated through graded series of ethanol solutions and embedded in EPON® media. After staining with uranyl acetate and lead citrate, ultra-thin sections were examined under a Philips EM410 electron microscope.
In the case of untreated cells transfected with a Gag-Pol expression vector, a large number of mature particles containing electron-dense core structures were found (FIG. 2A).

HIV-1 capsid = HIV-1 capsid (Human immunodeficiency virus type 1 group M subtype B, UniProt P04591); settings: read-out: Binding affinity (Kd); cited from earlier work
HIV-1 [5] = settings: cited from earlier work
HIV-1 [6] = settings: cited from earlier work; remark: listed apart in the source
[7] = Table 2, formula II, read-out: CC50

| SMILES | Activity against a broad range of HIV-1 laboratory-adapted and primary isolates (HIV-1 [1]) | CC50 at 4 days [2] | CC50 at 7 days [3] | IC50 (HIV-1 IIIB) | IC50 (HIV-1 MN) | IC50 (HIV-1 SF2) | IC50 (HIV-1 RF) | IC50 (HIV-1 BaL) | IC50 (HIV-1 AZT-R) | IC50 (HIV-1RF/L-323-12-3) | IC50 (HIV-1 92US657) | IC50 (HIV-1 93IN101) | IC50 (HIV-1 93Br020) | IC50 (HIV-1 RU570) | IC50 (HIV-1 BCF02) | IC50 (HIV-1 [1]; Table 2, formula II) | CC50 [2, 7] | other results |
| --- | --- | --- | --- | --- | --- | --- | --- | --- | --- | --- | --- | --- | --- | --- | --- | --- | --- | --- |
| Cc1ccc2[nH]c(=O)c(CN(Cc3ccco3)C(=O)c3ccc(Cl)cc3)cc2c1 [NYAD-S6] | consistently potent activity | > 50 µM | > 50 µM | < 10 µM | < 10 µM | < 10 µM | < 10 µM | < 10 µM | < 10 µM | < 10 µM | < 10 µM | < 10 µM | < 10 µM | < 10 µM | < 10 µM | – | – | IC50 (HIV-1 [1]; read-out: IC50 (concentration that provides 50% inhibition of HIV-1 p24), Table 1, formula I): < 10 µM; CC50 ([2]; Table 1, formula I, read-out: CC50 (concentration that causes 50% cytotoxicity)): > 10 µM; Formation of electron-dense core structures ([4]; 0.4 μM): markedly inhibited; Formation of electron-dense core structures ([4]; 2 μM): markedly inhibited; Formation of electron-dense core structures ([4]; 10 μM): markedly inhibited; Mature particle formation ([4]; FIGS. 2A-D, 0.4, 2 and 10 μM vs control): dramatic decrease in mature particle formation |
| Cc1cc(=O)n2c3ccccc3n(CC(O)CNc3ccc(F)cc3)c2c1C#N (centres unmarked) [NYAD-S8] | consistently potent activity | > 50 µM | > 50 µM | > 10 µM | < 10 µM | < 10 µM | < 10 µM | < 10 µM | < 10 µM | < 10 µM | < 10 µM | < 10 µM | < 10 µM | < 10 µM | > 10 µM | > 10 µM | > 10 µM | – |
| Cc1cc(=O)n2c3ccccc3n(CC(O)CN3CCN(C(c4ccccc4)c4ccccc4)CC3)c2c1C#N (centres unmarked) [NYAD-S17] | consistently potent activity | < 50 µM | < 50 µM | < 10 µM | < 10 µM | < 10 µM | < 10 µM | < 10 µM | < 10 µM | – | < 10 µM | < 10 µM | – | < 10 µM | < 10 µM | < 10 µM | > 10 µM | – |
| Cc1ccc(NC(=O)NCCSCc2ccc(CN(C)C)o2)cc1Cl [CAP-1] | – | – | – | – | – | – | – | – | – | – | – | – | – | – | – | – | – | Kd (HIV-1 capsid): ~800 µM; HIV-1 inhibition in viral infectivity assays (HIV-1 [5]): dose-dependent HIV-1 inhibition |
| C=C(C)[C@@H]1CC[C@]2(C(=O)O)CC[C@]3(C)[C@H](CC[C@@H]4[C@@]5(C)CC[C@H](OC(=O)CC(C)(C)C(=O)O)C(C)(C)[C@@H]5CC[C@]43C)[C@@H]12 [PA-457] | – | – | – | – | – | – | – | – | – | – | – | – | – | – | – | – | – | Antiviral potency in cell culture (HIV-1 [6]): low nM |
